Among the data in PubChem BioAssay AID1259411 (Chemical Carcinogenesis Research Information System (CCRIS), 2018) are carcinogen call values, retold here.

This data set has as its system rodent carcinogenicity bioassays, tumor incidence. In words: CCRIS carcinogenicity studies. The conditions noted are these: Dose: 0. From the text: The CCRIS database contains chemical records with carcinogenicity, mutagenicity, tumor promotion, and tumor inhibition test results. It was developed by the National Cancer Institute (NCI). Data are derived from studies cited in primary journals, current awareness tools, NCI reports, and other sources. Test results have been reviewed by experts in carcinogenesis and mutagenesis.
CCRIS provides historical information from the years 1985 - 2011. It is no longer updated.
This is an archive assay for CCRIS carcinogenicity studies.

SMILES strings stand for the structures. The source made the active and inactive calls. How the calls were made is not given here.

For the molecule `Oc1ccccc1O`, the carcinogen call by setting is: (Species: MOUSE, Strain/Sex: B6C3F1/FEMALE, Route: ORAL, 0.8% IN DIET FOR 96 WK (STUDY DURATION: 96 WK), Tumor Site: Type of Lesion: GLANDULAR STOMACH: ADENOMA) “active; positive”; (Species: MOUSE, Strain/Sex: B6C3F1/FEMALE, Route: ORAL, 0.8% IN POWDERED BASAL DIET FOR 96 WK (STUDY DURATION: 96 WK)) “inactive; negative”; (Species: MOUSE, Strain/Sex: B6C3F1/MALE, Route: ORAL, 0.8% IN DIET FOR 96 WK (STUDY DURATION: 96 WK), Tumor Site: Type of Lesion: GLANDULAR STOMACH: ADENOMA) “active; positive”; (Species: MOUSE, Strain/Sex: B6C3F1/MALE, Route: ORAL, 0.8% IN POWDERED BASAL DIET FOR 96 WK (STUDY DURATION: 96 WK)) “inactive; negative”; (Species: RAT, Strain/Sex: F344/FEMALE, Route: ORAL, 0.8% IN DIET FOR 104 WK (STUDY DURATION: 104 WK), Tumor Site: Type of Lesion: GLANDULAR STOMACH: ADENOMA, ADENOCARCINOMA) “active; positive”; (Species: RAT, Strain/Sex: F344/FEMALE, Route: ORAL, 0.8% IN POWDERED BASAL DIET FOR 104 WK (STUDY DURATION: 104 WK), Tumor Site: Type of Lesion: GLANDULAR STOMACH: ADENOCARCINOMA) “active; positive”. The carcinogen call runs as follows: (Species: RAT, Strain/Sex: F344/FEMALE, Route: ORAL, 2% IN DIET FOR 104 WK (STUDY DURATION: 104 WK), Tumor Site: Type of Lesion: GLANDULAR STOMACH: ADENOCARCINOMA) “active; positive”; (Species: RAT, Strain/Sex: F344/MALE, Route: ORAL, 0.1, 0.2, 0.4, 0.8% IN DIET FOR 104 WK (STUDY DURATION: 104 WK), 0.1, 0.2, 0.4, 0.8% IN DIET FOR 104 WK (STUDY DURATION: 104 WK), Tumor Site: Type of Lesion: GLANDULAR STOMACH: ADENOMA, PANCREAS: ACINAR CELL ADENOMA) “active; positive”; (Species: RAT, Strain/Sex: F344/MALE, Route: ORAL, 0.16% IN DIET FOR DURATION OF STUDY (STUDY DURATION: 104 WK), Tumor Site: Type of Lesion: GLANDULAR STOMACH: ADENOMA) “active; positive”; (Species: RAT, Strain/Sex: F344/MALE, Route: ORAL, 0.8% IN DIET FOR 12, 24, 48, 72, OR 96 WK FOLLOWED BY BASAL DIET FOR 84, 72, 48, 24, AND 0 WK RESPECTIVELY (STUDY DUR, Tumor Site: Type of Lesion: STOMACH: ADENOMA, ADENOCARCINOMA) “active; positive”; (Species: RAT, Strain/Sex: F344/MALE, Route: ORAL, 0.8% IN DIET FOR 104 WK (STUDY DURATION: 104 WK), Tumor Site: Type of Lesion: GLANDULAR STOMACH: ADENOMA, ADENOCARCINOMA) “active; positive”; (Species: RAT, Strain/Sex: F344/MALE, Route: ORAL, 0.8% IN POWDERED BASAL DIET FOR 104 WK (STUDY DURATION: 104 WK), Tumor Site: Type of Lesion: GLANDULAR STOMACH: ADENOCARCINOMA) “active; positive”. For the same molecule, the carcinogen call was “active; positive” (Species: RAT, Strain/Sex: F344/MALE, Route: ORAL, 2% IN DIET FOR 104 WK (STUDY DURATION: 104 WK), Tumor Site: Type of Lesion: GLANDULAR STOMACH: ADENOCARCINOMA); “active; positive” (Species: RAT, Strain/Sex: LEWIS/MALE, Route: ORAL, 0.8% IN DIET FOR 104 WK (STUDY DURATION: 104 WK), Tumor Site: Type of Lesion: GLANDULAR STOMACH: ADENOMA, ADENOCARCINOMA); “active; positive” (Species: RAT, Strain/Sex: SPRAGUE-DAWLEY/MALE, Route: ORAL, 0.8% IN DIET FOR 104 WK (STUDY DURATION: 104 WK), Tumor Site: Type of Lesion: GLANDULAR STOMACH: ADENOMA, ADENOCARCINOMA, FORESTOMACH: PAPILLOMA); “active; positive” (Species: RAT, Strain/Sex: WISTAR/MALE, Route: ORAL, 0.8% IN DIET FOR 104 WK (STUDY DURATION: 104 WK), Tumor Site: Type of Lesion: GLANDULAR STOMACH: ADENOMA, ADENOCARCINOMA); “active; positive” (Species: RAT, Strain/Sex: WKY/MALE, Route: ORAL, 0.8% IN DIET FOR 104 WK (STUDY DURATION: 104 WK), Tumor Site: Type of Lesion: GLANDULAR STOMACH: ADENOMA).

On to `CCCCCl`, for which the carcinogen call (Species: MOUSE, Strain/Sex: B6C3F1/FEMALE, Route: GAVAGE, 250, 500 MG/KG IN CORN OIL 5 D/WK FOR 103 WK, 250, 500 MG/KG IN CORN OIL 5 D/WK FOR 103 WK) is “inactive; negative”; the carcinogen call (Species: MOUSE, Strain/Sex: B6C3F1/MALE, Route: GAVAGE, 500, 1000 MG/KG IN CORN OIL 5 D/WK FOR 103 WK, 500, 1000 MG/KG IN CORN OIL 5 D/WK FOR 103 WK) was “inactive; negative”; the carcinogen call (Species: RAT, Strain/Sex: F344/FEMALE, Route: GAVAGE, 60, 120 MG/KG IN CORN OIL 5 D/WK FOR 103 WK, 60, 120 MG/KG IN CORN OIL 5 D/WK FOR 103 WK) was “inactive; negative”; the carcinogen call (Species: RAT, Strain/Sex: F344/MALE, Route: GAVAGE, 60, 120 MG/KG IN CORN OIL 5 D/WK FOR 103 WK, 60, 120 MG/KG IN CORN OIL 5 D/WK FOR 103 WK) is “inactive; negative”.

As to `O=S(=O)(c1ccc(Cl)cc1)c1ccc(Cl)cc1`, the carcinogen call is “inactive; negative” (Species: MOUSE, Strain/Sex: B6C3F1/FEMALE, Route: ORAL, 30, 100, 300 PPM IN DIET FOR 104-105 WK (STUDY DURATION: 104-105 WK), 30, 100, 300 PPM IN DIET FOR 104-105 WK (STUDY DURATION: 104-105 WK)); “inactive; negative” (Species: MOUSE, Strain/Sex: B6C3F1/MALE, Route: ORAL, 30, 100, 300 PPM IN DIET FOR 104-105 WK (STUDY DURATION: 104-105 WK), 30, 100, 300 PPM IN DIET FOR 104-105 WK (STUDY DURATION: 104-105 WK)); “inactive; negative” (Species: RAT, Strain/Sex: F344/FEMALE, Route: ORAL, 30, 100, 300 PPM IN DIET FOR 104-105 WK (STUDY DURATION: 104-105 WK), 30, 100, 300 PPM IN DIET FOR 104-105 WK (STUDY DURATION: 104-105 WK)); “inactive; negative” (Species: RAT, Strain/Sex: F344/MALE, Route: ORAL, 10, 30, 100, 300 PPM IN DIET FOR 104-105 WK (STUDY DURATION: 104-105 WK), 10, 30, 100, 300 PPM IN DIET FOR 104-105 WK (STUDY DURATION: 104-105 WK)).

Consider `Cc1ccc2cc3c(ccc4ccccc43)c3c2c1CC3OS(=O)(=O)O` (stereo not given), for which the carcinogen call (Species: RAT, Strain/Sex: SPRAGUE-DAWLEY/FEMALE, Route: SUBCUTANEOUS, 0.2 UMOL IN 0.1 ML SESAME OIL: DMSO (9:1) 3/WK FOR 20 DOSES (STUDY DURATION: 52 WK), Tumor Site: Type of Lesion: INJECTION SITE: SARCOMA) is “active; positive”.

Turning to `CC(C)(C)O`, the carcinogen call (Species: MOUSE, Strain/Sex: B6C3F1/FEMALE, Route: ORAL, 5, 10, 20 MG/ML IN DRINKING WATER FOR 103 WK (STUDY DURATION: 103 WK), 5, 10, 20 MG/ML IN DRINKING WATER FOR 103 WK (STUDY DURATION: 103 WK), Tumor Site: Type of Lesion: THYROID GLAND: FOLLICULAR CELL ADENOMA) was “active; positive”; the carcinogen call (Species: MOUSE, Strain/Sex: B6C3F1/MALE, Route: ORAL, 5, 10, 20 MG/ML IN DRINKING WATER FOR 103 WK (STUDY DURATION: 103 WK), 5, 10, 20 MG/ML IN DRINKING WATER FOR 103 WK (STUDY DURATION: 103 WK), Tumor Site: Type of Lesion: THYROID GLAND: FOLLICULAR CELL ADENOMA OR CARCINOMA) is recorded as “equivocal”; the carcinogen call (Species: RAT, Strain/Sex: F344/FEMALE, Route: ORAL, 2.5, 5, 10 MG/ML IN DRINKING WATER FOR 103 WK (STUDY DURATION: 103 WK), 2.5, 5, 10 MG/ML IN DRINKING WATER FOR 103 WK (STUDY DURATION: 103 WK)) is “inactive; negative”; the carcinogen call (Species: RAT, Strain/Sex: F344/MALE, Route: ORAL, 1.25, 2.5, 5 MG/ML IN DRINKING WATER FOR 103 WK (STUDY DURATION: 103 WK), 1.25, 2.5, 5 MG/ML IN DRINKING WATER FOR 103 WK (STUDY DURATION: 103 WK), Tumor Site: Type of Lesion: KIDNEY (RENAL TUBULE): ADENOMA OR CARCINOMA) is “active; positive”.
